Literature values as cited in patent US6525095B1, “Propionate feed supplement” (New Mexico State University Technology Transfer Corporation, priority 2000, dated 2003).

Test system: swine
Conditions: for Average daily gain / Average feed intake per day / Total insulin: 200 ppb chromium in feed

CCC(=O)[O-].CCC(=O)[O-].CCC(=O)[O-].[Cr+3] [chromium (III) propionate]
Average daily gain: decrease | Average feed intake per day: decrease | Total insulin: remained unaffected | Glucose clearance (during the insulin challenge): increased slightly more | Glucose half-life (during the insulin challenge): decreased

chromium (III) tripicolinate
Average daily gain: decrease | Average feed intake per day: decrease | Total insulin: remained unaffected | Glucose half-life (during the insulin challenge): decreased
